# Test results: US8546343B2, “Aminoglycoside antibiotics targeting bacterial 16S ribosomal RNA” (Eidgenoessische Technische Hochschule Zurich, priority 2007, dated 2013)
# Assays:
# [1] = system: AG015 S. aureus BM3002 (ANT4′); experiment: Standard MIC assay, AG015; type: cell-based, Staphylococcus aureus; settings: S. aureus BM3002 (ANT4′)
# Description: (§1) Selected compounds of the present invention were tested for antibiotic susceptibility using clinical isolates of Staphylococci, Enterococci and Escherichia coli as well as strains carrying defined resistance determinants and compared to well known antibiotics of the state of the art. Drug susceptibility was determined in standard MIC assays, i.e. by determination of the minimal drug concentration required to inhibit bacterial growth in vitro.
# [2] = system: AG014 Staph. epi. clinical isolate; experiment: Standard MIC assay, AG014; type: cell-based, Staphylococcus epidermidis
# Description: as §1
# [3] = system: AG011 Staph. aureus clinical isolate; experiment: Standard MIC assay, AG011; type: cell-based, Staphylococcus aureus
# Description: as §1
# AG017 E. faecalis JH2-2 = experiment: Standard MIC assay, AG017; type: cell-based, Enterococcus faecalis
# Description: as §1
# [4] = system: AG019 E. faecalis JH2-2 (APH2″ AAC6′); experiment: Standard MIC assay, AG019; type: cell-based, Enterococcus faecalis; settings: E. faecalis JH2-2 (APH2″ AAC6′)
# Description: as §1
# [5] = system: AG008 E. coli BM13 (ANT2″); experiment: Standard MIC assay, AG008; type: cell-based, Escherichia coli; settings: E. coli BM13 (ANT2″)
# Description: as §1
# [6] = system: AG013 Staph. epi. clinical isolate; experiment: Standard MIC assay, AG013; type: cell-based, Staphylococcus epidermidis
# Description: as §1
# [7] = system: M. smegmatis ΔrrnB 1408G (16S rRNA position 1408 G, eukaryotic cytosolic ribosomes); experiment: MIC, recombinant M. smegmatis with mutant ribosomes 1408G; type: cell-based, Mycobacterium smegmatis; settings: M. smegmatis ΔrrnB 1408G mutant ribosomes; 72 h at 37° C.
# Procedure, shortened: (§2)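 M. smegmatis single-rRNA-operon strain carrying the indicated 16S rRNA decoding-site alleles, introduced into the chromosomal operon and confirmed by sequencing. Colony-purified cultures were grown in LB with 0.05% Tween 80 and started at OD600 0.025. MIC was read in microtiter format against twofold drug dilutions.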
# [8] = system: AG002 E. coli clinical isolate; experiment: Standard MIC assay, AG002; type: cell-based, Escherichia coli
# Description: as §1
# [9] = system: AG009 E. coli BM13 AAC(6′)-1B; experiment: Standard MIC assay, AG009; type: cell-based, Escherichia coli; settings: E. coli BM13 AAC(6′)-1B
# Description: as §1
# AG006 E. coli BM13 = experiment: Standard MIC assay, AG006; type: cell-based, Escherichia coli
# Description: as §1
# [10] = system: M. smegmatis ΔrrnB 1491A (16S rRNA position 1491 A, eukaryotic cytosolic ribosomes); experiment: MIC, recombinant M. smegmatis with mutant ribosomes 1491A; type: cell-based, Mycobacterium smegmatis; settings: M. smegmatis ΔrrnB 1491A mutant ribosomes; 72 h at 37° C.
# Procedure, shortened: as §2
# AG016 S. aureus BM3002 = experiment: Standard MIC assay, AG016; type: cell-based, Staphylococcus aureus
# Description: as §1
# [11] = system: M. smegmatis ΔrrnB 1491C (16S rRNA position 1491 C, eukaryotic mitochondrial ribosome); experiment: MIC, recombinant M. smegmatis with mutant ribosomes 1491C; type: cell-based, Mycobacterium smegmatis; settings: M. smegmatis ΔrrnB 1491C mutant ribosomes; 72 h at 37° C.
# Procedure, shortened: as §2
# [12] = system: M. smegmatis ΔrrnB (bacterial ribosomes); experiment: MIC, recombinant M. smegmatis with bacterial (wild-type) ribosomes; type: cell-based, Mycobacterium smegmatis; settings: 72 h at 37° C.
# Procedure, shortened: as §2
# [13] = system: AG007 E. coli BM13 (AAC3); experiment: Standard MIC assay, AG007; type: cell-based, Escherichia coli; settings: E. coli BM13 (AAC3)
# Description: as §1
# [14] = system: AG004 E. coli clinical isolate; experiment: Standard MIC assay, AG004; type: cell-based, Escherichia coli
# Description: as §1
# [15] = system: AG003 E. coli clinical isolate; experiment: Standard MIC assay, AG003; type: cell-based, Escherichia coli
# Description: as §1
# [16] = system: AG001 E. coli clinical isolate; experiment: Standard MIC assay, AG001; type: cell-based, Escherichia coli
# Description: as §1
Molecule,Minimal inhibitory concentrations AG015 [1] [µg/mL],Minimal inhibitory concentrations AG014 [2],Minimal inhibitory concentrations AG011 [3] [µg/mL],Minimal inhibitory concentrations AG017 (AG017 E. faecalis JH2-2) [µg/mL],Minimal inhibitory concentrations AG019 [4] [µg/mL],Minimal inhibitory concentrations AG008 [5] [µg/mL],Minimal inhibitory concentrations AG013 [6],minimal inhibitory concentrations ΔrrnB 1408G [7],Minimal inhibitory concentrations AG002 [8] [µg/mL],Minimal inhibitory concentrations AG009 [9] [µg/mL],Minimal inhibitory concentrations AG006 (AG006 E. coli BM13) [µg/mL],minimal inhibitory concentrations ΔrrnB 1491A [10],Minimal inhibitory concentrations AG016 (AG016 S. aureus BM3002) [µg/mL],minimal inhibitory concentrations ΔrrnB 1491C [11],minimal inhibitory concentrations ΔrrnB [12] [µg/mL],Minimal inhibitory concentrations AG007 [13] [µg/mL],Minimal inhibitory concentrations AG004 [14] [µg/mL],Minimal inhibitory concentrations AG003 [15],Minimal inhibitory concentrations AG001 [16] [µg/mL]
"NC[C@@H]1O[C@H](O[C@H]2[C@@H](O)[C@H](O[C@@H]3[C@@H](O)[C@H](N)C[C@H](N)[C@H]3O[C@H]3O[C@@H]4CO[C@@H](c5ccccc5)O[C@H]4[C@H](O)[C@H]3N)O[C@@H]2CO)[C@H](N)[C@@H](O)[C@@H]1O [Compound 5.1, 4′,6′-O-benzylideneparomomycin]",32 to 64,8 µg/mL,8,32 to 64,256,32,8 to 16 µg/mL,512 µg/mL,64,128,32,512 µg/mL,16 to 32,>512 µg/mL,4,32,32 to 64,32 µg/mL,64
"NC[C@@H]1O[C@H](O[C@H]2[C@@H](O)[C@H](O[C@@H]3[C@@H](O)[C@H](N)C[C@H](N)[C@H]3O[C@H]3O[C@@H]4CO[C@@H](c5ccc(C(F)(F)F)cc5)O[C@H]4[C@H](O)[C@H]3N)O[C@@H]2CO)[C@H](N)[C@@H](O)[C@@H]1O [Compound 5.17, 4′,6′-O-p-Trifluoromethylbenzylideneparomomycin]",32,4 µg/mL,4,32,128,32,4 to 8 µg/mL,>512 µg/mL,32 to 64,64 to 128,32,512 µg/mL,8,512 µg/mL,2 to 4,32,32,32 to 64 µg/mL,32 to 64
"NC[C@@H]1O[C@H](O[C@H]2[C@@H](O)[C@H](O[C@@H]3[C@@H](O)[C@H](N)C[C@H](N)[C@H]3O[C@H]3O[C@@H]4CO[C@@H](CCc5ccccc5)O[C@H]4[C@H](O)[C@H]3N)O[C@@H]2CO)[C@H](N)[C@@H](O)[C@@H]1O [Compound 5.25, 4′,6′-O-(3-Phenyl)-propylideneparomomycin]",8 to 16,4 µg/mL,4,8,32,32,4 to 8 µg/mL,512 µg/mL,32 to 64,64 to 128,16 to 32,≧512 μg/ml,8,≧512 μg/ml,1,16 to 32,32,32 µg/mL,32 to 64
"NC[C@@H]1O[C@H](O[C@H]2[C@@H](O)[C@H](O[C@@H]3[C@@H](O)[C@H](N)C[C@H](N)[C@H]3O[C@H]3O[C@@H]4COC(C=Cc5ccccc5)O[C@H]4[C@H](O)[C@H]3N)O[C@@H]2CO)[C@H](N)[C@@H](O)[C@@H]1O (stereo partly shown) [Compound 5.26, 4′,6′-O-(3-Phenyl)-propenylideneparomomycin]",16 to 32,4 µg/mL,4,16 to 32,64 to 128,32,4 to 8 µg/mL,≧512 μg/ml,64,128,32,≧512 μg/ml,8,≧512 μg/ml,2 to 4,32,32,32 µg/mL,32 to 64
"NC[C@@H]1O[C@H](O[C@H]2[C@@H](O)[C@H](O[C@@H]3[C@@H](O)[C@H](N)C[C@H](N)[C@H]3O[C@H]3O[C@H](CO)[C@@H](OCCCc4ccccc4)[C@H](O)[C@H]3N)O[C@@H]2CO)[C@H](N)[C@@H](O)[C@@H]1O [Compound 19c, 4′-p-(3-phenylpropyl)paromomycin]",16,2 µg/mL,–,8 to 16,32,8 to 16,4 to 8 µg/mL,≧512 μg/ml,16,32,8 to 16,≧512 μg/ml,4,512 µg/mL,8 to 16,8 to 16,16,8 to 16 µg/mL,16 to 32
"NC[C@H]1O[C@H](O[C@H]2[C@H](O)[C@@H](O[C@H]3O[C@H](CO)[C@@H](O)[C@H](N)[C@H]3O)[C@H](N)C[C@@H]2N)[C@H](O)[C@@H](O)[C@@H]1O [Kanamycin A, kanamycin A, reference compound]",256,≧256 mg/l,16,32 to 64,>256,128,≧256 mg/l,–,16,>256,8,–,4 to 8,–,–,8,64,32 µg/mL,16
Gentamicin [reference compound],4,≧256 mg/l,4,8 to 16,>256,64,≧256 mg/l,–,2,32,4,–,1,–,–,128,>256,≧256 mg/l,4
